This note sets out measurements from patent US9815787B2, “Sulfonamide derivative or pharmaceutically acceptable acid addition salt thereof” (UNIVERSITY OF TSUKUBA, priority 2013, dated 2017).

The target in this assay is T1, OX2R (Homo sapiens, UniProt O43614).
T1 construct: expressed in transfected cells; host or cells: CHO (Chinese hamster ovary) cells constitutively expressing the OX2R gene and NFAT-luciferase (CHOOX2R)
T1 sequence (O43614 1-444): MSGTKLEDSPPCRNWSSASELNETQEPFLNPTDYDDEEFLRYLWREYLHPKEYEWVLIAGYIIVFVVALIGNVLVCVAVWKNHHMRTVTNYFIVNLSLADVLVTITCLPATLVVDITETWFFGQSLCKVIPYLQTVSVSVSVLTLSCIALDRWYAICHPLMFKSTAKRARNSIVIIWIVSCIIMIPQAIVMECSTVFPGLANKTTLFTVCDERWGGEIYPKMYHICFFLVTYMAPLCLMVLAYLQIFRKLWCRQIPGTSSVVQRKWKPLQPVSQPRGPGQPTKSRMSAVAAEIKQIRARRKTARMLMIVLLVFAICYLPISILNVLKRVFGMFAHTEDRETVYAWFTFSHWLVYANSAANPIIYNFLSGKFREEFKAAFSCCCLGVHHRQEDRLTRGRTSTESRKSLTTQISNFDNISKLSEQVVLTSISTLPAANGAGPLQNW
In words: Evaluation of agonist activity against OX2R (CHOOX2R cells, Fura2AM fluorescence, FDSS3000). The assay is classed as cell-based. Put shortly: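 CHO cells stably expressing human OX2R (and NFAT-luciferase), cultured 48 h in 5% FBS DMEM. Agonist response read as change in Fura2AM fluorescence on compound addition in HEPES buffer. Final compound concentrations 0.1, 1.0 or 10 μM; 1% DMSO.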

The mark [1] stands for this setting: test compound 0.1 μM; CHOOX2R cells; relative to orexin-A as full agonist (100%).
Where [2] appears, read: test compound 1.0 μM; CHOOX2R cells; relative to orexin-A as full agonist (100%).
The mark [3] stands for this setting: test compound 10 μM; CHOOX2R cells; relative to orexin-A as full agonist (100%).
Setting [4] is: test compound 0.1 μM; relative to orexin-A as full agonist (100%); CHOOX2R cells.
Setting [5] is: test compound 1.0 μM; relative to orexin-A as full agonist (100%); CHOOX2R cells.
Where [6] appears, read: test compound 10 μM; relative to orexin-A as full agonist (100%); CHOOX2R cells.
[7] abbreviates: OX2R agonist activity; CHOOX2R cells.
Where [8] appears, read: conversion with orexin-A as full agonist (maximum agonist activity 100%).

For the molecule `COc1ccc(-c2cccc(C(=O)N(C)C)c2)cc1S(=O)(=O)Nc1cccc(NCCNC(=O)c2cccnc2Cl)c1` [Example 50, 2-chloro-N-(2-((3-(3′-(dimethylcarbamoyl)-4-methoxy-[1,1′-biphenyl]-3-ylsulfonamido)phenyl)amino)ethyl)nicotinamide], the “Response (0.1 μM (%))” value under setting [1] is recorded as less than 5%. For the same molecule, the “Response (1.0 μM (%))” value under setting [2] is given as 71%. In addition, under setting [3], the “Response (10 μM (%))” value is reported as 76%.
For the molecule `COc1ccc(-c2cccc(C(=O)N(C)C)c2)cc1S(=O)(=O)Nc1cccc(NCCNC(=O)c2cccc(C#N)c2)c1` [Example 72, 3′-(N-(3-((2-(3-cyanobenzamido)ethyl)amino)phenyl)sulfamoyl)-4′-methoxy-N,N-dimethyl-[1,1′-biphenyl]-3-carboxamide], the “Response (0.1 μM (%))” value under setting [1] is reported as less than 5%. The “Response (1.0 μM (%))” value under setting [2] is recorded as 16%. Under setting [3], the “Response (10 μM (%))” value was found to be 88%.
Turning to `COc1ccc(-c2ccccc2F)cc1S(=O)(=O)Nc1cccc(NCCNC(=O)c2ccccn2)c1` [Example 14, N-(2-((3-(2′-fluoro-4-methoxy-[1,1′-biphenyl]-3-ylsulfonamide)phenyl)amino)ethyl)picolinamide], the “Response (0.1 μM (%))” value under setting [4] was less than 5%. For the same molecule, the “Response (1.0 μM (%))” value under setting [5] was less than 5%. Under setting [6], the “Response (10 μM (%))” value was 8%.
As for `COc1cccc(C(=O)NCCNc2cccc(NS(=O)(=O)c3cc(-c4cccc(C(=O)N(C)C)c4)ccc3OC)c2)c1` [Example 41, 4′-methoxy-3′-(N-(3-((2-(3-methoxybenzamido)ethyl)amino)phenyl)sulfamoyl)-N,N-dimethyl-[1,1′-biphenyl]-3-carboxamide], under setting [7], it took 33 nM to reach a half-maximal effect (EC50). Besides, the Emax under setting [8] is 57%. Besides, the “Response (0.1 μM (%))” value under setting [1] is 70%. Further, the “Response (1.0 μM (%))” value under setting [2] is reported as 107%. In addition, under setting [3], the “Response (10 μM (%))” value was found to be 115%.
For the molecule `COc1cccc(C(=O)NCCNc2cccc(NS(=O)(=O)c3cc(-c4cc(F)ccc4Cl)ccc3OC)c2)c1` [Example 33, N-(2-((3-(2′-chloro-5′-fluoro-4-methoxy-[1,1′-biphenyl]-3-ylsulfonamide)phenyl)amino)ethyl)-3-methoxybenzamide], the “Response (0.1 μM (%))” value under setting [4] is on record as less than 5%. The “Response (1.0 μM (%))” value under setting [5] worked out at 31%. Also, under setting [6], the “Response (10 μM (%))” value stood at 93%.
With `COc1ccccc1C(=O)NCCNc1cccc(NS(=O)(=O)c2cc(-c3cccnc3)ccc2OC)c1` [Example 96, 2-methoxy-N-(2-((3-(2-methoxy-5-(pyridin-3-yl)phenylsulfonamido)phenyl)amino)ethyl)benzamide], a half-maximal effect under setting [7] (EC50) was put at 268 nM. The same molecule yielded an Emax under setting [8] of 88%. In addition, the “Response (0.1 μM (%))” value under setting [1] was less than 5%. For the same molecule, the “Response (1.0 μM (%))” value under setting [2] is reported as 61%. In addition, the “Response (10 μM (%))” value under setting [3] worked out at 88%.
For the molecule `COc1cccc(C(=O)NCCNc2cccc(NS(=O)(=O)c3cc(-c4cc(Cl)cc(Cl)c4)ccc3OC)c2)c1` [Example 28, N-(2-((3-(3′,5′-dichloro-4-methoxy-[1,1′-biphenyl]-3-ylsulfonamide)phenyl)amino)ethyl)-3-methoxybenzamide], under setting [4], the “Response (0.1 μM (%))” value is less than 5%. For the same molecule, the “Response (1.0 μM (%))” value under setting [5] is less than 5%. Moreover, the “Response (10 μM (%))” value under setting [6] is recorded as less than 5%.
For `COc1ccc(-c2ccccc2F)cc1S(=O)(=O)Nc1cccc(NCCNC(=O)c2ccccc2O)c1` [Example 6, N-(2-((3-(2′-fluoro-4-methoxy-[1,1′-biphenyl]-3-ylsulfonamide)phenyl)amino)ethyl)-2-hydroxybenzamide], the “Response (0.1 μM (%))” value under setting [4] is recorded as less than 5%. Under setting [5], the “Response (1.0 μM (%))” value was less than 5%. The “Response (10 μM (%))” value under setting [6] came out at 7%.
On to `COc1cccc(C(=O)NCCNc2cccc(NS(=O)(=O)c3cc(-c4ccccc4OC)ccc3OC)c2)c1` [Example 13, N-(2-((3-(2′,4-dimethoxy-[1,1′-biphenyl]-3-ylsulfonamide)phenyl)amino)ethyl)-3-methoxybenzamide], for which, under setting [4], the “Response (0.1 μM (%))” value is recorded as less than 5%. Besides, the “Response (1.0 μM (%))” value under setting [5] is recorded as 64%. In addition, the “Response (10 μM (%))” value under setting [6] was 99%.
